Reference: PubChem BioAssay (NCI)
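The compound was tested at five concentrations on cells cultured in 96-well plates, with a 48-hour exposure period. GI50 marks 50% less growth. Definition used: TGI = concentration required for complete inhibition of growth.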

What was measured:
Experiment in all cases: NCI-60 cell line screen, 48 h
[1] = system: CCRF-CEM leukemia
[2] = system: HCT-15 colon
[3] = system: SK-MEL-2 melanoma
[4] = system: PC-3 prostate
[5] = system: UACC-257 melanoma
[6] = system: UACC-62 melanoma
[7] = system: NCI-H226 lung
[8] = system: CAKI-1 renal
[9] = system: NCI-H23 lung
[10] = system: NCI/ADR-RES ovarian
[11] = system: SF-539 CNS
[12] = system: A498 renal
[13] = system: SNB-75 CNS
[14] = system: U251 CNS
[15] = system: IGROV1 ovarian
[16] = system: RPMI-8226 leukemia
[17] = system: M14 melanoma
[18] = system: MCF7 breast
[19] = system: OVCAR-8 ovarian
[20] = system: TK-10 renal
[21] = system: RXF 393 renal
[22] = system: SF-295 CNS
[23] = system: OVCAR-3 ovarian
[24] = system: OVCAR-5 ovarian
[25] = system: SW-620 colon
[26] = system: HT29 colon
[27] = system: SR leukemia
[28] = system: ACHN renal
[29] = system: SNB-19 CNS
[30] = system: KM12 colon
[31] = system: HL-60(TB) leukemia
[32] = system: HCC-2998 colon
[33] = system: OVCAR-4 ovarian
[34] = system: NCI-H522 lung
[35] = system: HCT-116 colon
[36] = system: UO-31 renal
[37] = system: K-562 leukemia
[38] = system: EKVX NSCLC
[39] = system: LOX IMVI melanoma
[40] = system: SK-OV-3 ovarian
[41] = system: HOP-62 NSCLC
[42] = system: COLO 205 colon
[43] = system: HOP-92 NSCLC
[44] = system: DU-145 prostate
[45] = system: MDA-MB-435
[46] = system: SK-MEL-28 melanoma
[47] = system: MOLT-4 leukemia
[48] = system: T-47D breast
[49] = system: SK-MEL-5 melanoma
[50] = system: NCI-H460 lung
[51] = system: SN12C renal
[52] = system: HS 578T breast
[53] = system: BT-549 breast
[54] = system: MDA-MB-231 breast
[55] = system: A549 NSCLC
[56] = system: SF-268 CNS
[57] = system: 786-0 renal

ClCc1cccc(CSc2ncnc3c2ncn3Cc2cccc(CCl)c2)c1
GI50 [1]: 1.6 µM
TGI [1]: 6.95 µM
GI50 [2]: 1.71 µM
TGI [2]: 3.42 µM
GI50 [3]: 2.58 µM
TGI [3]: 6.81 µM
GI50 [4]: 1.67 µM
TGI [4]: 3.34 µM
GI50 [5]: 1.74 µM
TGI [5]: 3.37 µM
GI50 [6]: 1.76 µM
TGI [6]: 3.46 µM
GI50 [7]: 1.66 µM
TGI [7]: 4.54 µM
GI50 [8]: 1.92 µM
TGI [8]: 4.34 µM
GI50 [9]: 1.75 µM
TGI [9]: 3.88 µM
GI50 [10]: 2.11 µM
TGI [10]: 6.83 µM
GI50 [11]: 1.58 µM
TGI [11]: 4.31 µM
GI50 [12]: 11.1 µM
TGI [12]: 23.6 µM
GI50 [13]: 1.51 µM
TGI [13]: 2.93 µM
GI50 [14]: 1.59 µM
TGI [14]: 3.01 µM
GI50 [15]: 1.95 µM
TGI [15]: 4.51 µM
GI50 [16]: 1.89 µM
TGI [16]: 4.86 µM
GI50 [17]: 1.71 µM
TGI [17]: 3.23 µM
GI50 [18]: 1.59 µM
TGI [18]: 3.3 µM
GI50 [19]: 2.11 µM
TGI [19]: 6.24 µM
GI50 [20]: 1.93 µM
TGI [20]: 3.61 µM
GI50 [21]: 1.05 µM
TGI [21]: 2.4 µM
GI50 [22]: 2.13 µM
TGI [22]: 5.59 µM
GI50 [23]: 1.86 µM
TGI [23]: 3.31 µM
GI50 [24]: 1.84 µM
TGI [24]: 3.99 µM
GI50 [25]: 1.69 µM
TGI [25]: 3.47 µM
GI50 [26]: 2.04 µM
TGI [26]: 3.74 µM
GI50 [27]: 2.82 µM
TGI [27]: 9.89 µM
GI50 [28]: 2 µM
TGI [28]: 4.39 µM
GI50 [29]: 1.85 µM
TGI [29]: 3.46 µM
GI50 [30]: 1.88 µM
TGI [30]: 3.46 µM
GI50 [31]: 2.26 µM
TGI [31]: 5.03 µM
GI50 [32]: 1.71 µM
TGI [32]: 3.13 µM
GI50 [33]: 2.38 µM
TGI [33]: 10.6 µM
GI50 [34]: 1.42 µM
TGI [34]: 3.42 µM
GI50 [35]: 1.76 µM
TGI [35]: 3.31 µM
GI50 [36]: 1.74 µM
TGI [36]: 3.93 µM
GI50 [37]: 2.71 µM
TGI [37]: 15 µM
GI50 [38]: 10.1 µM
TGI [38]: 24.6 µM
GI50 [39]: 1.4 µM
TGI [39]: 2.74 µM
GI50 [40]: 2.3 µM
TGI [40]: 4.97 µM
GI50 [41]: 1.8 µM
TGI [41]: 3.33 µM
GI50 [42]: 1.88 µM
TGI [42]: 3.43 µM
GI50 [43]: 1.64 µM
TGI [43]: 3.32 µM
GI50 [44]: 1.85 µM
TGI [44]: 3.3 µM
GI50 [45]: 1.71 µM
TGI [45]: 3.67 µM
GI50 [46]: 1.59 µM
TGI [46]: 3.08 µM
GI50 [47]: 3.65 µM
TGI [47]: 17.2 µM
GI50 [48]: 2.31 µM
TGI [48]: 5.12 µM
GI50 [49]: 1.56 µM
TGI [49]: 2.9 µM
GI50 [50]: 2.04 µM
TGI [50]: 4.76 µM
GI50 [51]: 2.02 µM
TGI [51]: 7.33 µM
GI50 [52]: 5.39 µM
TGI [52]: > 100 µM
GI50 [53]: 1.32 µM
TGI [53]: 2.83 µM
GI50 [54]: 1.93 µM
TGI [54]: 3.82 µM
GI50 [55]: 4.54 µM
TGI [55]: 18.4 µM
GI50 [56]: 1.99 µM
TGI [56]: 4.91 µM

O=C(NCc1ccco1)c1cccc(NC2=C(Cl)C(=O)N(Cc3ccccc3)C2=O)c1
GI50 [2]: 4.16 µM
TGI [2]: 24 µM
GI50 [3]: 3.3 µM
TGI [3]: 20.7 µM
GI50 [4]: 5.11 µM
TGI [4]: 19.6 µM
GI50 [5]: 3.86 µM
TGI [5]: 26.5 µM
GI50 [6]: 12.6 µM
TGI [6]: 33.3 µM
GI50 [7]: 12.7 µM
TGI [7]: 62.7 µM
GI50 [8]: 0.232 µM
TGI [8]: 1.45 µM
GI50 [9]: 14.7 µM
TGI [9]: 33.3 µM
GI50 [10]: 6.53 µM
TGI [10]: 34.3 µM
GI50 [11]: 3.53 µM
TGI [11]: 15 µM
GI50 [12]: 17.2 µM
TGI [12]: 50.8 µM
GI50 [13]: 14.1 µM
TGI [13]: 87.2 µM
GI50 [14]: 11.5 µM
TGI [14]: 60.5 µM
GI50 [15]: 2.44 µM
TGI [15]: 11 µM
GI50 [16]: 1.06 µM
TGI [16]: 3.29 µM
GI50 [17]: 11.7 µM
TGI [17]: 24.6 µM
GI50 [18]: 11.5 µM
TGI [18]: > 100 µM
GI50 [19]: 8.57 µM
TGI [19]: > 100 µM
GI50 [20]: 3.54 µM
TGI [20]: 9.18 µM
GI50 [21]: 4.22 µM
TGI [21]: 26.2 µM
GI50 [22]: 1.81 µM
TGI [22]: 9.4 µM
GI50 [23]: 2.44 µM
TGI [23]: 7.71 µM
GI50 [24]: 22.5 µM
TGI [24]: 63.9 µM
GI50 [25]: 11.5 µM
TGI [25]: > 100 µM
GI50 [26]: 18.4 µM
TGI [26]: > 100 µM
GI50 [27]: 2.94 µM
TGI [27]: 19.9 µM
GI50 [28]: 9.18 µM
TGI [28]: 42.3 µM
GI50 [29]: 23.2 µM
TGI [29]: > 100 µM
GI50 [30]: 6.49 µM
TGI [30]: 24.5 µM
GI50 [31]: 5.52 µM
TGI [31]: 22.3 µM
GI50 [32]: 10.8 µM
TGI [32]: 25.6 µM
GI50 [33]: 6.74 µM
TGI [33]: 64.3 µM
GI50 [34]: 2.84 µM
TGI [34]: 20.8 µM
GI50 [35]: 3.86 µM
TGI [35]: 15.1 µM
GI50 [36]: 3.24 µM
TGI [36]: 18.6 µM
GI50 [37]: 5.24 µM
TGI [37]: > 100 µM
GI50 [38]: 34.8 µM
TGI [38]: > 100 µM
GI50 [39]: 3.72 µM
TGI [39]: > 100 µM
GI50 [40]: 45.8 µM
TGI [40]: > 100 µM
GI50 [41]: 13.1 µM
TGI [41]: 28.5 µM
GI50 [42]: 16.2 µM
TGI [42]: 49.9 µM
GI50 [43]: 7.91 µM
TGI [43]: 33 µM
GI50 [44]: 5.3 µM
TGI [44]: 24.7 µM
GI50 [45]: 2.33 µM
TGI [45]: 7.39 µM
GI50 [46]: 16.4 µM
TGI [46]: 46.6 µM
GI50 [47]: 5.19 µM
TGI [47]: > 100 µM
GI50 [48]: 23.1 µM
TGI [48]: > 100 µM
GI50 [49]: 5.26 µM
TGI [49]: 23.3 µM
GI50 [50]: 92.3 µM
TGI [50]: > 100 µM
GI50 [51]: 22.1 µM
TGI [51]: > 100 µM
GI50 [52]: 15.4 µM
TGI [52]: > 100 µM
GI50 [53]: 7.29 µM
TGI [53]: 30.7 µM
GI50 [57]: 3.94 µM
TGI [57]: 16.3 µM
GI50 [54]: 17.3 µM
TGI [54]: > 100 µM
GI50 [55]: 19.9 µM
TGI [55]: > 100 µM
GI50 [56]: > 100 µM
TGI [56]: > 100 µM
